The values that follow are results of earlier work, collected in US10485754B2, “Method for the production of a sodium ion-free effervescent tablet, powder or granulate having a high X ion content, where X can be a variety of substances” (BIOFAR LABORATOIRES, priority 2014, dated 2019).

Turning to `O=C([O-])[O-].[Ca+2]` [calcium carbonate], the “calcium carbonate that can be dissolved in one liter of water” value (water) is 0.014 grams in one liter of water. Besides, for the setting “with CO2 soda in the water”, the “calcium carbonate that can be dissolved in one liter of water with CO2” value is listed as “up to 16.6 grams in one liter of water”.
